The values below come from patent publication US20210231678A1, “ALLERGY ANTIGEN AND EPITOPE THEREOF” (FUJITA ACADEMY, priority 2020, published 2021).

The test system of this assay is IgE antibody present in the serum of a patient (latex-allergic). Kind of assay: Latex epitope mapping (2) overlapping 10-residue peptides and (3) alanine/glycine scanning on peptide arrays. Format: binding, human. The method, then:
On the basis of the sequences (SEQ ID NOs: 5, 25, 35, 68 and 83) of the peptides bound to an IgE antibody in serum in a patient-specific manner as described above in (A), a library of overlapping peptide fragments (length: 10 amino acids) was prepared using the sequences of the peptides and sequences in which sequences were added so as to flank each peptide in the amino acid sequences of allergy components comprising the sequences of the peptide. Epitope mapping was carried out using the library.
The peptides to be synthesized were shifted by one amino acid.
The library was prepared by the same procedure as described above in (A), and the presence or absence of binding of an IgE antibody present in the serum of a patient to each peptide fragment was measured by the same technique as described above. Numeric values determined from images obtained as a result of carrying out only the procedures (1) and (4) to (6) described above in the subsection titled (3) Spotting of cellulose-bound peptide solution were used as control values. The control value of each peptide was subtracted from numeric values determined from images obtained from results about the serum of patients, and the obtained value of the difference was compared with values of the peptides serving as the basis of overlapping.
Chemiluminescence intensity in images obtained by measurement was converted into a numeric value in the same manner as in (A). Numeric values determined from images obtained as a result of carrying out only the procedures (1) and (4) to (6) described above in the subsection titled (3) Spotting of cellulose-bound peptide solution (secondary antibody measurement values) were used as control values. The control value of each peptide was subtracted from numeric values determined from images obtained from results about the serum of patients. When values obtained using the sequences (SEQ ID NOs: 5, 25, 35, 68 and 83) serving as the basis of overlapping were defined as 100%, it was determined that: a peptide having a value of the difference that was less than 30% had no binding activity against IgE antibodies; a peptide having a value of the difference that was 30% or more and less than 50% had binding activity, albeit poor, against IgE antibodies; a peptide having a value of the difference that was 50% or more and less than 70% had binding activity, albeit somewhat poor, against IgE antibodies; and a peptide having a value of the difference that was 70% or more had equivalent or good binding activity against IgE antibodies and was thus a peptide had remaining binding activity against IgE antibodies.
From the amino acid sequences identified above in (A), a library of peptide fragments in which amino-terminal amino acids were substituted one by one by alanine (or glycine when the original amino acid was alanine) according to a technique called alanine/glycine scanning (Non Patent Literature 5) was prepared by the same technique as described above. The presence or absence of binding of an IgE antibody present in the serum of a patient to each peptide fragment was measured by the same technique as described above.
Chemiluminescence intensity in images obtained by measurement was converted into a numeric value in the same manner as in (A). Numeric values determined from images obtained from secondary antibody measurement values were used as control values. The control value of each peptide was subtracted from numeric values determined from images obtained from results about the serum of 17 patients (patient Nos. P1-P17). […]

Setting [1] is: serum of latex-allergic patient P1.
The mark [2] stands for this setting: serum of latex-allergic patient P2.
Where [3] appears, read: serum of latex-allergic patient P6.
Setting [4] is: serum of latex-allergic patient P7.
Where [5] appears, read: serum of latex-allergic patient P8.
[6] abbreviates: serum of latex-allergic patient P9.
The mark [7] stands for this setting: serum of latex-allergic patient P12.
Setting [8] is: serum of latex-allergic patient P13.
The mark [9] stands for this setting: serum of latex-allergic patient P17.
Setting [10] is: serum of latex-allergic patient P15.
Setting [11] is: serum of latex-allergic patient P3.
Setting [12] is: serum of latex-allergic patient P4.
Setting [13] is: serum of latex-allergic patient P5.

For 6 (QKPY; epitope) [compound 6], the “epitope sequence grade for binding to IgE antibody” value (“epitope sequence grade for binding” below) under setting [1] was “Key”.
Take 7 (DNFVIQKPYD; epitope) [compound 7]: the “epitope sequence grade for binding” value under setting [2] was “Preferably”.
Consider 9 (EDNFVIQKPY; epitope) [compound 9], for which the “epitope sequence grade for binding” value under setting [3] is given as “More preferably”.
The same measure, in the same setting: for 10 (QKPYDK; epitope) [compound 10] the value was “Preferably”; for 11 (QKPY; epitope) [compound 11], “Key”.
Take 12 (QKPYD; epitope) [compound 12]: the “epitope sequence grade for binding” value under setting [4] is recorded as “Preferably”.
Take 13 (QKPY; epitope) [compound 13]: the “epitope sequence grade for binding” value under setting [4] is “Key”.
In the case of 14 (QKPYDK; epitope) [compound 14], the “epitope sequence grade for binding” value under setting [5] is “Preferably”.
In the case of 15 (QKPYD; epitope) [compound 15], the “epitope sequence grade for binding” value under setting [5] is “Key”.
Regarding 16 (QKPYDK; epitope) [compound 16], the “epitope sequence grade for binding” value under setting [6] was “Key”.
In the case of 17 (EDNFVIQKPY; epitope) [compound 17], under setting [7], the “epitope sequence grade for binding” value was “More preferably”.
In the case of 18 (QKPYDK; epitope) [compound 18], the “epitope sequence grade for binding” value under setting [7] is listed as “Preferably”.
The same measure, in the same setting: for 19 (QKPY; epitope) [compound 19] the value was “Key”.
Regarding 20 (QKPYDK; epitope) [compound 20], the “epitope sequence grade for binding” value under setting [8] was “Key”.
In the case of 21 (FVIQKPYD; epitope) [compound 21], under setting [9], the “epitope sequence grade for binding” value is listed as “Further preferably”.
For the substance 22 (QKPYDKPLN; epitope) [compound 22], the “epitope sequence grade for binding” value under setting [9] was “More preferably”.
The same measure, in the same setting: as for 23 (QKPYD; epitope) [compound 23], the entry is “Preferably”.
The same measure, in the same setting: for 24 (QKPY; epitope) [compound 24] the value was “Key”.
In the case of 26 (DKPLN; epitope) [compound 26], under setting [2], the “epitope sequence grade for binding” value is “Key”.
Regarding 27 (KPYDKP; epitope) [compound 27], under setting [3], the “epitope sequence grade for binding” value is given as “Key”.
Take 28 (KPLNDRYS; epitope) [compound 28]: the “epitope sequence grade for binding” value under setting [3] is recorded as “Key”.
Consider 29 (DKPLNDR; epitope) [compound 29], for which the “epitope sequence grade for binding” value under setting [6] is given as “Key”.
For 30 (KPLN; epitope) [compound 30], the “epitope sequence grade for binding” value under setting [8] was “Key”.
For the substance 31 (DKPLND; epitope) [compound 31], the “epitope sequence grade for binding” value under setting [10] is “Preferably”.
The same measure, in the same setting: as for 32 (KPLN; epitope) [compound 32], the entry is “Key”.
As to 33 (KPYDKPLNDR; epitope) [compound 33], the “epitope sequence grade for binding” value under setting [9] is “Preferably”.
In the case of 34 (DKPLNDRYS; epitope) [compound 34], the “epitope sequence grade for binding” value under setting [9] was “Key”.
As to 36 (LKSYKSNSVA; epitope) [compound 36], the “epitope sequence grade for binding” value under setting [11] is given as “Most preferably”.
As for 37 (SYKSNSVATD; epitope) [compound 37], the “epitope sequence grade for binding” value under setting [11] is given as “Further preferably”.
Still for that read-out and setting: for 38 (SYKSNSVA; epitope) [compound 38] the value was “More preferably”; for 39 (SYKSNSV; epitope) [compound 39], “Preferably”.
As for 41 (SYKSNSV; epitope) [compound 41], the “epitope sequence grade for binding” value under setting [12] was “More preferably”.
As for 44 (SYKSNS; epitope) [compound 44], under setting [13], the “epitope sequence grade for binding” value is given as “Preferably”.
46 (LKSYKSNSVA; epitope) [compound 46]: the “epitope sequence grade for binding” value under setting [5] is “Preferably”.
For the substance 47 (LKSYKSNSV; epitope) [compound 47], the “epitope sequence grade for binding” value under setting [5] is given as “Key”.
In the case of 48 (KSNSVATDI; epitope) [compound 48], the “epitope sequence grade for binding” value under setting [5] is “Further preferably”.
On the same count and under the same terms, for 49 (KSNSVATD; epitope) [compound 49] the value was “More preferably”.
Regarding 52 (LKSYK; epitope) [compound 52], the “epitope sequence grade for binding” value under setting [6] is “Key”.
The same measure, in the same setting: as for 53 (KSNSVATDIY; epitope) [compound 53], the entry is “Further preferably”.
As to 57 (LKSYKSNSVA; epitope) [compound 57], under setting [7], the “epitope sequence grade for binding” value is recorded as “Most preferably”.
Same read-out and setting: as for 58 (SYKSNSVATD; epitope) [compound 58], the entry is “Still further preferably”.
Consider 59 (SYKSNSVA; epitope) [compound 59], for which the “epitope sequence grade for binding” value under setting [7] is recorded as “Further preferably”.
With 63 (VATDIY; epitope) [compound 63], the “epitope sequence grade for binding” value under setting [7] is given as “More preferably”.
As to 66 (SYKSNS; epitope) [compound 66], the “epitope sequence grade for binding” value under setting [8] was “Key”.
Regarding 67 (KSNSV; epitope) [compound 67], the “epitope sequence grade for binding” value under setting [9] is “Key”.
With 69 (HKVGKGEI; epitope) [compound 69], the “epitope sequence grade for binding” value under setting [1] was “Preferably”.
In the case of 70 (HKVGKG; epitope) [compound 70], the “epitope sequence grade for binding” value under setting [1] is “Key”.
As for 71 (VNVIHKVGKG; epitope) [compound 71], the “epitope sequence grade for binding” value under setting [13] is given as “More preferably”.
Still for that read-out and setting: for 74 (VIHKVGKGEI; epitope) [compound 74] the value was “Further preferably”; for 75 (HKVGKGEI; epitope) [compound 75], “More preferably”.
Take 78 (KVGK; epitope) [compound 78]: the “epitope sequence grade for binding” value under setting [4] is listed as “Key”.
79 (KVGK; epitope) [compound 79]: the “epitope sequence grade for binding” value under setting [6] is “Key”.
For the substance 80 (KVGKGEITVF; epitope) [compound 80], under setting [9], the “epitope sequence grade for binding” value was “More preferably”.
Regarding 84 (SKFYDDKNG; epitope) [compound 84], the “epitope sequence grade for binding” value under setting [1] was “More preferably”.
Still for that read-out and setting: as for 85 (SKFYDDKN; epitope) [compound 85], the entry is “Preferably”; as for 87 (YDDKNGYSSS; epitope) [compound 87], “Further preferably”; as for 88 (DDKNGYSSS; epitope) [compound 88], “More preferably”.
With 91 (WSKFYDDK; epitope) [compound 91], the “epitope sequence grade for binding” value under setting [2] is “Further preferably”.
On the same count and under the same terms, as for 92 (KFYDDKNGYS; epitope) [compound 92], the entry is “More preferably”; as for 93 (KFYDDK; epitope) [compound 93], “Preferably”; as for 95 (DDKNGYSSS; epitope) [compound 95], “More preferably”.
98 (WSKFYDDK; epitope) [compound 98]: under setting [12], the “epitope sequence grade for binding” value is recorded as “More preferably”.
For the substance 99 (KFYDDKNGYS; epiotope) [compound 99], the “epitope sequence grade for binding” value under setting [12] was “Preferably”.
In the case of 100 (KFYDDK; epitope) [compound 100], under setting [12], the “epitope sequence grade for binding” value is on record as “Key”.
Same read-out and setting: for 101 (DKNGYSSS; epitope) [compound 101] the value was “More preferably”.
Regarding 104 (WSKFYDDK; epitope) [compound 104], the “epitope sequence grade for binding” value under setting [13] is on record as “More preferably”.
Same read-out and setting: as for 105 (SKFYDDK; epitope) [compound 105], the entry is “Preferably”.
Regarding 106 (KFYDDK; epitope) [compound 106], the “epitope sequence grade for binding” value under setting [13] is recorded as “Key”.
